Measured values taken from US6136831A, “Pyrazole derivatives and COX inhibitors containing them” (Grelan Pharmaceutical Co., Ltd., priority 1997, dated 2000).

Columns and labels:
[1] = test system: acetic acid writhing in male ddY mice; experiment: Analgesic Action in Acetic Acid Writhing (Assay Example 3); format: in vivo
Description: A 0.7% acetic acid solution was intraperitoneally administered to male ddY mice at a dose of 10 ml/kg body weight. The frequency of writhing manifested was counted as an index of pains for a period of 10 minutes starting from the 10th minute after the administration. Ten or thirty minutes prior to the acetic acid administration, each test compound was orally given.

[2] = test system: rat adjuvant-induced arthritis; experiment: Inhibitory Action on Adjuvant Arthritis (1) (Assay Example 2); format: in vivo, male Fisher rats; conditions: oral 5 mg/kg; for % Inhibition against Reduction of Gain in Body Weight / Edema Inhibition (%) Left Hind Paw (Non-inflamed Paw) / Edema Inhibition (%) Right Hind Paw (Inflamed Paw) / Inflammation Score Inhibition (%): days 0, 3, 7, 10, 14, 17, 20; for % Inhibition against Reduction of Gain in Body Weight / Edema Inhibition (%) Left Hind Paw (Non-inflamed Paw) / Edema Inhibition (%) Right Hind Paw (Inflamed Paw): measured day 21; for Inflammation Score Inhibition (%): scored day 21; for % Inhibition against Change in Relative Weight, Spleen / % Inhibition against Change in Relative Weight, Thymus: 7 times, relative weight per 100 g body weight, day 21
Description: Dry Mycobacterium butyricum killed organisms (Difco) were suspended in liquid paraffin to make the concentration 1% and the resulting suspension used as an adjuvant. The adjuvant (50 μl) was subplantarly injected to the right hind paw of male Fisher rats (5 to 6 animals per group) to raise arthritis. Each test compound was suspended in a 0.5% aqueous sodium carboxymethylcellulose (CMC-Na) solution and orally administered to the rats at a dose of 5 mg/kg on days 0, 3, 7, 10, 14, 17 and 20 (7 times in total) after the arthritis induction. On the 21st disease day the rats were measured for their body weight and the edema of their right and left hind paws. Simultaneously, systemic inflammatory states were scored. In addition, each of their spleen and thymus was taken out by excision to measure their wet weight and their relative weight per 100 g body weight was calculated.

COX-1 = molecular target: T1, COX-1 (Ovis aries, UniProt P05979); experiment: Inhibitory Activity on COX-1 (Assay Example 1); format: biochemical; conditions: Table 1; read-out: COX Inhibiting Activity IC50, COX-1
T1 construct: purchased Cayman Chemical Co
T1 sequence (P05979 25-600): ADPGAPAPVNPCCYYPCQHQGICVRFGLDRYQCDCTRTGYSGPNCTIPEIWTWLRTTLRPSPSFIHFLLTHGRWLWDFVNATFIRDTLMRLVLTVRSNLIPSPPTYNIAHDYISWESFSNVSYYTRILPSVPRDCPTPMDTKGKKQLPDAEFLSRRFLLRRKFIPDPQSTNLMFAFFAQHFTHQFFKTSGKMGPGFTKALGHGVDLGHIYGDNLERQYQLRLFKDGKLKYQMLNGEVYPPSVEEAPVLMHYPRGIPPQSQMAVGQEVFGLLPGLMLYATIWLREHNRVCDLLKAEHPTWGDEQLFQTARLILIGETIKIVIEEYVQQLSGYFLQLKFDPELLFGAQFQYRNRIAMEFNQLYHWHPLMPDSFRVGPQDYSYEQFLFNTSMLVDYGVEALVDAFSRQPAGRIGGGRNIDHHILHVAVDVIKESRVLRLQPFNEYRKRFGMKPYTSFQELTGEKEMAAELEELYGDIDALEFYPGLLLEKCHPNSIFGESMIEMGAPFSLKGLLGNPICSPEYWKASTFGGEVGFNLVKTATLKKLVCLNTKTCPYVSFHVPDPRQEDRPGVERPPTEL

COX-2 = molecular target: T2, COX-2 (Ovis aries, UniProt P79208); experiment: Inhibitory Activity on COX-2 (Assay Example 1); format: biochemical; conditions: Table 1; for IC50: read-out: COX Inhibiting Activity IC50, COX-2
T2 construct: purchased Cayman Chemical Co
T2 sequence (P79208 17-603): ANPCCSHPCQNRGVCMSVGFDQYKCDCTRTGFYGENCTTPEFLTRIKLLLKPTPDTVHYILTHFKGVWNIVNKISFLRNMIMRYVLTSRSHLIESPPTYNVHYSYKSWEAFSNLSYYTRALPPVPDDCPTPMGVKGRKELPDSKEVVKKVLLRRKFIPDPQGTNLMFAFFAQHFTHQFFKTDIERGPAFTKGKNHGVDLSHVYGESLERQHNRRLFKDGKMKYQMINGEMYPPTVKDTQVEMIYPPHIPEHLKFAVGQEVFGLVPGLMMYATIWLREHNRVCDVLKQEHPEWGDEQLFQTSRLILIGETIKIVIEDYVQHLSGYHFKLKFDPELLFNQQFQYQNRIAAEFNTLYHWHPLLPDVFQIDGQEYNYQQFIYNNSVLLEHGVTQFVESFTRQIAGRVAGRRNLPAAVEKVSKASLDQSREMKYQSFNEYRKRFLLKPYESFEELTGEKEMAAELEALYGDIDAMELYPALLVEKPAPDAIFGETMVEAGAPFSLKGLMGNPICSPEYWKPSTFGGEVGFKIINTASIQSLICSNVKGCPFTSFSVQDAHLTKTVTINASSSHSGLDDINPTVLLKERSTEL

[3] = test system: oxazolone-induced dermal delayed type hypersensitivity (IV-type allergy); experiment: Inhibitory Action on Oxazolone-Induced Dermal Delayed Type Hypersensitivity (Assay Example 8); format: in vivo, mice; conditions: for edema inhibition / increase in edematized auricle thickness: 4 days, 24 hours after challenge; for increase in edematized auricle thickness: control (0.12±0.03) mm
Description: Sensitization was conducted by topically applying 150 μl of 1% oxazolone solution (ethanol:acetone=3:1) to mice (5 to 6 animals per group), the abdominal and pectral regions of which were shaved in advance. Four days after the sensitization, 10 μl of 0.8% oxazolone solution (in olive oil) was topically applied to the […] left auricle to raise the response. Twenty-four hours later the auricular thickness was measured using a dial-gauge (Mitsutoyo Co.). Values obtained by subtracting auricular thickness data prior to the challenge were taken as indexes of the response. […] One hour after the final administration, the challenge was conducted.

[4] = test system: Arthus reaction (III-type allergy); experiment: Inhibitory Action on Arthus Reaction (Assay Example 7); conditions: for increase in edematized left hind paw volume / edema inhibition: one hour prior to ovalbumin; for increase in edematized left hind paw volume: 2 hours, control (0.74±0.06) ml; for edema inhibition: significant, not more than 1% error level
Description: Rat anti-ovalbumin serum was prepared by the method given below. One mg of ovalbumin was dissolved in 1 ml of physiological saline and divided to two aliquots. The ovalbumin solution was intramuscularly administered to the femoral portion of male SD rats. Simultaneously, 0.5 ml of 0.05% Mycobacterium butyricum suspension as a Freund's complete adjuvant was intraperitoneally administered to the rats. Three days later, the same treatments were repeated. On the 12th day after the initial sensitization,antisera were collected.
Two hours later, the left hind paw volume was measured using a plethysmometer and the increases in paw volume were determined by comparing with those prior to the Arthus reaction induction. […] Each compound was suspended in a 0.5% aqueous CMC-Na solution and orally administered one hour prior to the ovalbumin administration. Control groups received only a 0.5% aqueous CMC-Na solution. The test of significance was conducted by Dunnett's multiple range test.

[5] = test system: adjuvant arthritis in rats; experiment: Inhibitory Action on Adjuvant Arthritis (2) (Assay Example 6); format: in vivo, male F344/Du (Fisher) rats; conditions: oral 1 mg/5 ml/kg daily, 17 days
Description: A 1% dry Mycobacterium tuberculosis H37 RA killed organism suspension in liquid paraffin was employed as an adjuvant. The adjuvant suspension (50 μl) was subplantarly administered to the right hind paw of male F344/Du (Fisher) rats (5 to 6 animals per group) to raise arthritis. […] The next day after the final administration, the rats were measured for their body weight and the edema of their right and left hind paws. Simultaneously, systemic inflammatory states were scored. In addition, each of their spleen and thymus was taken out by excision to measure their wet weight and their relative weight per 100 g body weight was determined.

Compound	% Inhibition against Reduction of Gain in Body Weight [2]	Edema Inhibition (%) Left Hind Paw (Non-inflamed Paw) [2]	Edema Inhibition (%) Right Hind Paw (Inflamed Paw) [2]	Inflammation Score Inhibition (%) [2]	IC50 (COX-1)	COX-1/COX-2 (ratio of IC50 values) (COX-2)	IC50 (COX-2)	% Inhibition against Change in Relative Weight, Spleen [2]	% Inhibition against Change in Relative Weight, Thymus [2]	other results
CS(=O)(=O)c1ccc(-n2nc(C(F)(F)F)cc2-c2ccc(F)cc2)cc1 [SC-58125, 5-(4-fluorophenyl)-1-(4-methylsulfonylphenyl)-3-trifluoromethyl-1H-pyrazole, reference compound]	96.9%	95%	76%	96%	–	–	–	–	–	% Inhibition of Writhing Response ([1]; 30 mg/kg oral, Administration Point 1: 10 minutes prior to acetic acid): 22%
CS(=O)(=O)c1ccc(-n2nc(C(F)(F)F)cc2-c2nc3ccc(Cl)cc3s2)cc1 [Example 10, 6-Chloro-2-[1-(4-methylsulfonylphenyl)-3-trifluoromethyl-1H-pyrazol-5-yl]benzothiazole]	–	–	–	–	> 100000 nM	> 185	540 nM	–	–	–
CS(=O)(=O)c1ccc(-n2nc(C(F)(F)F)cc2-c2nc3ccc(F)cc3s2)cc1 [Example 2, 6-Fluoro-2-[1-(4-methylsulfonylphenyl)-3-trifluoromethyl-1H-pyrazol-5-yl]benzothiazole]	75.9%	91%	94%	97%	> 100000 nM	> 263	380 nM	2.5%	56.7%	% Inhibition of Writhing Response ([1]; 10 mg/kg oral, Administration Point 1: 10 minutes prior to acetic acid): 49%; % Inhibition of Writhing Response ([1]; 10 mg/kg oral, Administration Point 2: 30 minutes prior to acetic acid): 57%
NS(=O)(=O)c1ccc(-n2nc(C(F)(F)F)cc2-c2nc3ccc(F)cc3s2)cc1 [Example 13, 4-[5-(6-Fluorobenzothiazol-2-yl)-3-trifluoromethyl-1H-pyrazol-1-yl]benzenesulfonamide]	48.6%	76%	71%	78%	47000 nM	142	330 nM	-10.5%	71.3%	–
COc1ccc2nc(-c3cc(C(F)(F)F)nn3-c3ccc(S(N)(=O)=O)cc3)sc2c1 [Example 11, 4-[5-(6-Methoxybenzothiazol-2-yl)-3-trifluoromethyl-1H-pyrazol-1-yl]benzenesulfonamide]	–	–	–	–	> 100000 nM	> 208	480 nM	–	–	–
C[C@]12C=CC(=O)C=C1CC[C@@H]1[C@@H]2[C@@H](O)C[C@@]2(C)[C@H]1CC[C@]2(O)C(=O)CO [prednisolone, reference compound]	–	–	–	–	–	–	–	–	–	edema inhibition ([3]; 10 mg/kg oral daily): 70%; increase in edematized auricle thickness ([3]; 10 mg/kg oral daily): 0.04±0.01 mm; increase in edematized left hind paw volume ([4]; 10 mg/kg oral): 0.51 ± 0.02 mL; edema inhibition ([4]; 10 mg/kg oral): 31%
COc1ccc2c(c1)c(CC(=O)O)c(C)n2C(=O)c1ccc(Cl)cc1 [Indomethacin, reference compound]	19.8%	75%	43%	51%	–	–	–	–	–	% Inhibition of Writhing Response ([1]; po, 3 mg/kg): 28%
CS(=O)(=O)c1ccc(-n2nc(C(F)(F)F)cc2-c2nc3ccccc3s2)cc1 [Example 8, 2-[1-(4-Methylsulfonylphenyl)-3-trifluoromethyl-1H-pyrazol-5-yl]benzothiazole]	–	–	–	–	> 100000 nM	> 294	340 nM	–	–	–
CS(=O)(=O)c1ccc(-n2nc(C(F)(F)F)cc2-c2nc3c(F)cccc3s2)cc1 [Example 6, 4-Fluoro-2-[1-(4-methylsulfonylphenyl)-3-trifluoromethyl-1H-pyrazol-5-yl]benzothiazole]	104.6%	105%	84%	97%	> 100000 nM	> 23.3	4300 nM	42.6%	130.3%	edema inhibition ([3]; 30 mg/kg oral daily): 48%; increase in edematized auricle thickness ([3]; 30 mg/kg oral daily): 0.06±0.01 mm; action on oxazolone-induced delayed type hypersensitivity, in words ([3]; index test for immunoregulating activity, IV-type allergy): controlling actions; increase in edematized left hind paw volume ([4]; 50 mg/kg oral): 0.54 ± 0.04 mL; edema inhibition ([4]; 50 mg/kg oral): 27%; action on Arthus reaction, in words ([4]; index test for immunoregulating activity, III-type allergy): controlling actions
Cc1ccc(-c2cc(C(F)(F)F)nn2-c2ccc(S(N)(=O)=O)cc2)cc1 [YM-177, 4-[5-(4-methylphenyl)-3-trifluoromethyl-1H-pyrazol-1-yl]benzenesulfonamide, reference compound]	25.5%	65%	37%	44%	–	–	–	–	–	% Inhibition against Reduction of Gain in Body Weight ([5]; measured next day): 21%; Edema Inhibition (%) Left Hind Paw (Non-inflamed Paw) ([5]; measured next day): 60%; Edema Inhibition (%) Right Hind Paw (Inflamed Paw) ([5]; measured next day): 41%; Inflammation Score Inhibition (%) ([5]; scored next day): 49%; % Inhibition of Writhing Response ([1]; po, 30 mg/kg): 17%
